Experiments:
[1] = system: green peach aphid (Myzus persicae); assay: Myzus persicae test (sprayed cabbage leaves); assay type: in vivo; conditions: single active compound, 100 g/ha
Excerpt: (§1) Solvents: 78 parts by weight of acetone

[2] = system: two-spotted spider mite (Tetranychus urticae); assay: Tetranychus urticae test (sprayed dwarf bean leaves); assay type: in vivo; conditions: single active compound
Excerpt: as §1

[3] = system: larvae of the mustard beetle (Phaedon cochleariae); assay: Phaedon cochleariae larvae test (sprayed cabbage leaves); conditions: single active compound, 100 g/ha
[4] = system: larvae of the army worm (Spodoptera frugiperda); assay: Spodoptera frugiperda test (sprayed cabbage leaves); assay type: in vivo; conditions: single active compound, 100 g/ha
Excerpt: as §1

SMILES	Kill level in % after 6d [1] [%]	Kill rate in % after 2d ([2]; 0.16 g/ha) [%]	Kill rate in % after 2d ([2]; 0.8 g/ha) [%]	Kill rate in % after 2d ([2]; 0.032 g/ha) [%]	Kill level in % after 6d [3] [%]	Kill level in % after 6d [4] [%]
Cc1cc(C)c(C2=C(OC(=O)CC(C)(C)C)C3(CCCC3)OC2=O)c(C)c1 [Spiromesifen]	70	0	10	–	–	–
CSC(=O)O/C(=C(/C#N)c1ccc(Cl)cc1)c1ccccc1C(F)(F)F [IKA 2002]	–	–	0	0	33	0
CCOC(=O)OC1=C(c2cc(C)ccc2C)C(=O)N[C@]12CC[C@@H](OC)CC2 [Spirotetramat]	–	–	0	–	33	50
Cc1nn(C)c(/C(OC(=O)C(C)(C)C)=C(\C#N)c2ccc(C(C)(C)C)cc2)c1C [Cyenopyrafen, (1E)-2-cyano-2-[4-(1,1-dimethylethyl)phenyl]-1-(1,3,4-trimethyl-1H-pyrazol-5-yl)ethenyl 2,2-dimethylpropanoate]	0	–	80	–	50	–
CCC(C)(C)C(=O)OC1=C(c2ccc(Cl)cc2Cl)C(=O)OC12CCCCC2 [Spirodiclofen]	–	–	10	–	–	–
COCCOC(=O)C(C#N)(C(=O)c1ccccc1C(F)(F)F)c1ccc(C(C)(C)C)cc1 (stereo not drawn) [Cyflumetofen, 2-methoxyethyl alpha-cyano-alpha-[4-(1,1-dimethylethyl)phenyl]-beta-oxo-2-(trifluoromethyl)benzenepropanoate]	0	–	20	–	0	0

Reference: US8816097B2, “Active ingredient combinations having insecticide and acaricide properties” (Bayer CropScience AG, priority 2006, dated 2014)
